Data as given in patent US12180192B2, “Modulators of THR-β and methods of use thereof” (ALIGOS THERAPEUTICS, INC., priority 2019, dated 2024).
pEC50: −log10 of the molar value.

What was measured:
THR alpha = molecular target: T1, THR alpha (Homo sapiens, UniProt P10827); test: HEK293T THR alpha/RXR luciferase reporter assay (Assay 2); format: cell-based; settings: Assay 2; for Emax: HEK-293T, Table 5, THRα, read-out: Activity category Assay 2 THRα (Emax); for pEC50: Table 4, THR-alpha, read-out: Activity category Assay 2 (EC50, THR-alpha agonist activity)
T1 construct: expressed in transfected cells; host or cells: HEK293T (ATCC CRL-3216)
T1 sequence (P10827 1-410 isoform P10827-2): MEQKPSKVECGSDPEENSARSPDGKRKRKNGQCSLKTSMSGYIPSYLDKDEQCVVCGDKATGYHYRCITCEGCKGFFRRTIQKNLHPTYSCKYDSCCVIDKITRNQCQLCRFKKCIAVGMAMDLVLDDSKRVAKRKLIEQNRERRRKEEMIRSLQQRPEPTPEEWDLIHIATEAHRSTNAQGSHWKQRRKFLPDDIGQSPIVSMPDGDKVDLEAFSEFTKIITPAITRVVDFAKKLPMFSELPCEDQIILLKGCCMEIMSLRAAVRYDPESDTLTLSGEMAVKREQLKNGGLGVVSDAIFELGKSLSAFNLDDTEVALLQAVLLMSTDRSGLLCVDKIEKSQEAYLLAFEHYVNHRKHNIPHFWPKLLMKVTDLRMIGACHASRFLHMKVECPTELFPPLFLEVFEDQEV
T1 sequence (P19793 1-462 partner): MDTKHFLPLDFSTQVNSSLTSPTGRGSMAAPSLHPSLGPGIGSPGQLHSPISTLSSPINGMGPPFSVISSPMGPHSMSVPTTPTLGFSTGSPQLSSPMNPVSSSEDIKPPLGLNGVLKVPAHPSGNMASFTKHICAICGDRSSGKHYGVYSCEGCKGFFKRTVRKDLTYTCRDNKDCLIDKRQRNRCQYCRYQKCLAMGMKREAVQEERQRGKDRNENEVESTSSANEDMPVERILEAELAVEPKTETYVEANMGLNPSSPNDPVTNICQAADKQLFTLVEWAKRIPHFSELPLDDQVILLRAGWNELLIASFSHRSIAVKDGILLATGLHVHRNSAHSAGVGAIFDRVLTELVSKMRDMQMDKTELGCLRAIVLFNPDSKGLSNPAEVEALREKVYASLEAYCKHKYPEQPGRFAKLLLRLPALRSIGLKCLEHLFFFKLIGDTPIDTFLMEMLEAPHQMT
Summary of the method: (§1)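 Compounds tested as ten-point five-fold dilution series for 18-24 h on transiently transfected HEK293T cells carrying TRE-driven luciferase plus RXR and either THR alpha or beta expression plasmids. Read-out by One-Glo luminescence, expressed as percent agonism relative to negative and positive controls.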

[1] = molecular target: T2, human thyroid receptor alpha ligand-binding domain (LBD) (Homo sapiens, UniProt P10827); test: TR-FRET thyroid receptor alpha coactivator assay (THR biochemical assay, Assay 1); settings: for pEC50: Table 4, THR-alpha, read-out: Activity category Assay 1 (EC50, THR-alpha agonist activity); for Emax: Table 5, THRα, read-out: Activity category Assay 1 THRα (Emax)
T2 construct: purchased Invitrogen
Summary of the method: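 Agonist-driven coactivator recruitment measured by TR-FRET: terbium anti-GST antibody (2 nM) bound to GST-LBD of TRβ or TRα (1 nM final, stated for β), with fluorescein SRC2-2 peptide at 200 nM. Compounds at 1% DMSO. Read after 1 h, room temperature, protected from light.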

THR beta = molecular target: T3, THR beta (Homo sapiens, UniProt P10828); test: HEK293T THR beta/RXR luciferase reporter assay (Assay 2); format: cell-based; settings: for Emax: HEK-293T, Table 5, Assay 2, THRβ, read-out: Activity category Assay 2 THRβ (Emax); for pEC50: THR-beta, HEK293T reporter assay, read-out: Activity category Assay 2 (EC50, THR-beta agonist)
T3 construct: expressed in transfected cells; host or cells: HEK293T (ATCC CRL-3216)
T3 sequence (P10828 1-461): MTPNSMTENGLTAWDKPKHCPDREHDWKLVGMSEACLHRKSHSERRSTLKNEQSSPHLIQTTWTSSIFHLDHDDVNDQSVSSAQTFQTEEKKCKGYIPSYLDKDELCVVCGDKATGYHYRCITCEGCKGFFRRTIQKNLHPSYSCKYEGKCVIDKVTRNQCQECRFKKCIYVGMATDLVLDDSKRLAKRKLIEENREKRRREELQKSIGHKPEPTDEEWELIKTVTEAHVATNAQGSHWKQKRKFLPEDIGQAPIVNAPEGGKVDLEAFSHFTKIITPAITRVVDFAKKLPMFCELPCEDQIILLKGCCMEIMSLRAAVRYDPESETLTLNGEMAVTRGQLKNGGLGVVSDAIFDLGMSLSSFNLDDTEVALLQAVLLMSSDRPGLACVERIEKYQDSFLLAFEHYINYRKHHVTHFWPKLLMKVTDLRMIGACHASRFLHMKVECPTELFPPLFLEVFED
T3 sequence (P19793 1-462 partner): T1 sequence (P19793 1-462 partner)
Summary of the method: as §1

## Cc1cc(-n2nc(C#N)c(=O)[nH]c2=O)cc(C)c1Cc1ccc2[nH]cc(C(C)C)c2n1 [Compound 31, 2-[4-[(3-isopropyl-1H-pyrrolo[3,2-b]pyridin-5-yl)methyl]-3,5-dimethyl-phenyl]-3,5-dioxo-1,2,4-triazine-6-carbonitrile]
THR alpha
  Emax: > 75%
  pEC50: 5.00 to 6.00
[1]
  pEC50: > 7.30
  Emax: < 50%
THR beta
  Emax: > 75%
  pEC50: 6.00 to 6.60

## CC(c1cc(Oc2c(Cl)cc(-n3nc(N)c(=O)[nH]c3=O)cc2Cl)n[nH]c1=O)C1CC(F)(F)C1 (single isomer, unassigned) [Compound 61-A, 6-amino-2-[3,5-dichloro-4-([5-[1-(3,3-difluorocyclobutyl)ethyl]-6-oxo-1H-pyridazin-3-yl]oxy)phenyl]-4H-1,2,4-tri-azine-3,5-dione]
THR alpha
  Emax: 50 to 75%
  pEC50: 6.60 to 7.30
[1]
  pEC50: 6.60 to 7.30
  Emax: 50 to 75%
THR beta
  Emax: > 75%
  pEC50: > 7.30
